In patent US20120015901A1, “METHODS AND PREPARATIONS FOR PROTECTING CRITICALLY ILL PATIENTS” (priority 2009, published 2012):

Legend:
[1] = tested on: wild type yeast (BY4741) and null mutants; experiment: Yeast chronological aging, survival plating (clonogenicity); format: cell-based; details: for Pro-survival effect of spermidine application (compared to WT): 4 mM; for increase of survival: day 20, 4 mM spermidine
Protocol: Experiments were carried out in BY4741 (MATa his3Δ1 leu2Δ0 met15Δ0 ura3Δ0) and respective null mutants, obtained from Euroscarf. The double mutant Δiki3Δsas3 was generated according to Gueldener at al. (2002) Nucleic Acids Res. 30, e23 by using gene-specific URA3-knockout cassette, amplified by PCR with pUG72 as template (Lovaas & Carlin (1991) Free Radic Biol Med 11, 455-46.). […] All spe1 double mutant strains were obtained through mating and sporulation of BY4741 Δspe1 with the respective BY4742 ([…]) single mutant strains. Single and double mutant strains were verified for correct gene deletion by PCR and further checked for consistent auxotrophies. […] Strains were grown at 28° C. on SC medium containing 0.17% yeast nitrogen base (Difco), 0.5% (NH4)2SO4 and 30 mg/l of all amino acids (except 80 mg/l histidine and 200 mg/l leucine), 30 mg/l adenine, and 320 mg/l uracil with 2% glucose (SCD). […] To construct NHP6A-EGFP in pUG35-Ura (giving rise to a C-terminally tagged chimeric fusion protein under control of the met25-Promotor) the insert was amplified by PCR using genomic DNA from BY4741 as template and cloned into pUG35 using the EcoRI restriction site. The EGFP-ATG8 construct in pUG36-Ura (N-terminally tagged fusion protein) was similarly generated, using EcoRI and ClaI restriction sites.
In case of experiments with Δspe1 (FIG. 24 A-E), all strains were inoculated to 5·10^4 cells/ml. […] Therefore, for calculation of survival rates in experiments using Δiki3Δsas3, cell numbers of each sample were determined after two pulse of sonication on ice with Sonifier 250 from Benson (Duty Cycle: 35; Output Control: 2.5). Tests for apoptotic (TUNEL and Annexin V staining) and necrotic (PI staining) markers as well as markers for oxidative stress (DHE staining) were performed as described in Dod et al. (1982) Eur J Biochem 121, 401-405). For quantifications using flow cytometry (BD FACSAria), 30,000 cells were evaluated and analyzed with BD FACSDiva software. Spermidine (S4139, Sigma, Austria) and putrescine (P5780, Sigma, Austria; 1 mM final concentration) were added to stationary cultures at day 1 of the aging experiments (24 h after inoculation). 1 M aqueous stock solution of spermidine was stored in one use aliquots at −20° C. for no longer than 1 month. For adjustment of extracellular pH (pHex) to 6 (±0.5), the required amount of sodium hydroxide was added 30 h after inoculation. The pHex was maintained at approximately 6 (±0.5) throughout the aging.

C57BL/6 mice = experiment: Aging mice with spermidine in drinking water; format: in vivo
Text: Male and female C57BL/6 mice were purchased from the Institut für Labortierkunde und-genetik, Himberg, Austria. All animals were used at an age between 12 and 16 weeks. All mice were kept and treated according to institutional guidelines and Austrian law and the experiments were approved by the responsible governmental commission. For each group, one male and two female mice were housed singly and fed ad libitum with regular food (pellets) and spermidine was supplemented to drinking water in concentrations of 0.3 and 3 mM for 200 days. Controls were given pure drinking water. Drinking water was replaced every 2-3 days and spermidine freshly added from 1 M aqueous stock (spermidine/HCl pH 7.4), which was kept at −20° C. for no longer than one month. […] At the end of the experiment, the animals were anesthetized by ether inhalation, and exsanguinated by heart puncture. Peripheral blood was allowed to clot for 20 min, and serum was obtained by centrifugation at 200 g for 10 min. The spleens and livers (shock frozen in liquid nitrogen and stored at −80° C. upon further use) were immediately excised. Serum was used for determination of free thiol groups by Ellmans' reaction (Ellman (1959) Arch Biochem Biophys 82, 70-77 and Riener et al. (2002) Anal Bioanal Chem 373, 266-276 (2002).) as described previously (Schraml et al. (2007) Exp Gerontol 42, 1072-1078).
Extraction of polyamines from mice liver tissue was performed according to the freeze/thaw-method described by (Minocha et al. (1994)J Plant Growth Regul 13, 187-193) with slight modifications. […]
Polyamines were determined according to the method described previously by Gianotti et al. (V. Gianotti et al. (2008) J Chromatogr A 1185, 296-300.). […]
Polyamines were detected in MRM mode using following transitions: spermidine (m/z 146->72, CE 34 eV), putrescine (m/z 89->72, CE 28 eV), bis(hexamethylene)-triamine as internal standard (m/z 216->100, CE 36 eV). […]

[2] = tested on: pre-aged wild type yeast cells; experiment: Stress of pre-aged yeast by heat shock or hydrogen peroxide; format: cell-based; details: aged to day 24 with 4 mM spermidine; 4 h, 3 mM H2O2 or 42° C.
Protocol: Survival of pre-aged wild type cells stressed for 4 h with hydrogen peroxide (3 mM H2O2) or heat shock (42° C.) compared to unstressed cells. Cells were chronologically aged until day 24 with or without addition of 4 mM spermidine. Data represent means±SEM (n=4). *p<0.05 and ***p<0.001. B) Free thiol group concentration (indicative of oxidative stress level) in blood serum of aging mice with or without (control) supplementation of drinking water with 0.3 and 3 mM spermidine for 200 days. Data represent means±SEM (n=3). **p<0.01. (C) Intracellular spermidine of mouse liver cells, obtained from the same mice used for RSH measurements presented in (B). Data represent means±SEM (n=3).

Structure (SMILES): NCCCCNCCCN [spermidine]
- chronological life span of polyamine depleted cells [1]: restored
- Pro-survival effect of spermidine application (compared to WT) ([1]; deletions image P00002, HDA2, increased in early aging (fast death of controls), BUT diminished or absent day 15 to 25): increased during
- Pro-survival effect of spermidine application (compared to WT) ([1]; single deletion of HDA1): not affected
- Pro-survival effect of spermidine application (compared to WT) ([1]; single deletions image P00004, RXT2, SDS3, SAP30): not affected
- Pro-survival effect of spermidine application (compared to WT) ([1]; single deletions image P00005, HDA3, HOS1, HOS2, HOS3, HOS4, RPD3, PHO23, SIR2, HST1, HST2, SET3, SIF2): not affected
- Pro-survival effect of spermidine application (compared to WT) ([1]; single deletions shown as image P00001, survival increased during early aging): reduced
- Pro-survival effect of spermidine application (compared to WT) ([1]; single deletions shown as image P00003, during early aging (day 5 to 15)): slightly reduced
- increase in yeast life span ([1]; BY4741 wild type, spermidine supplied at day 1 (4 mM)): up to 4 times
- ability of spermidine to extend the chronological life span ([1]; deletion of SIR2): did not abrogate
- longevity upon spermidine application ([1]; single deletion of HST1, HST2, HST3, HST4): did not affect longevity
- increase of survival ([1]; wild type cells): 5 fold
- anti-aging (pro-survival) effect of spermidine ([1]; Δiki3 and Δsas3 strains): partially abrogated
- increase of survival ([1]; Δiki3Δsas3 cells): 1.3 fold
- ROS accumulation and survival during aging ([1]; Δsod2 mutant cells, 4 mM spermidine): temporarily protects from excessive ROS accumulation and loss of survival
- increase of serum level of free thiol groups (C57BL/6 mice; 3 mM spermidine in drinking water for 200 days): ~30%
- food and body weight (C57BL/6 mice; 0.3 and 3 mM in drinking water, 200 days (data not shown)): remained unaffected
- intracellular spermidine levels in liver cells (C57BL/6 mice; spermidine in drinking water, 200 days): significantly increased
- resistance against stress inflicted by heat shock or H2O2 treatment [2]: strong resistance
